Measured values as given in patent US20250295631A1, “NOVEL TREATMENT” (University of Liverpool, priority 2022, published 2025).
Where two headings read alike, the source gives them in different places.

Legend:
[1] = Method: To investigate cross-linker stability 0.2 M BS^3 was prepared in various buffers. The pH was measured using a SevenGO SG2 pH meter with an InLab Ultra-Micro-ISM electrode (Mettler Toldedo, Leicester, UK). Nine carbonate buffer and two phosphate buffer formulations were investigated. All were prepared in deionised H2O. Formulations can be seen in Table 1 below. The pH of BS^3 at concentrations of 0.2 M and 0.035 M (20 mg/ml as per patent US2014/0271897 A1 claim [0358]) in phosphate buffered saline (PBS) were also measured. The pH was measured immediately after addition BS3 and filtration (00:00) then at 30 mins, 1 hour, 2 hours, 3 hours, 4 hours, 24 hours.
BS^3 (bis(sulfosuccinimidyl)suberate, Thermo Scientific Pierce, IL, USA) solutions was prepared to concentrations of 0.2 M in the buffer solution, vortexed for 1 min and then filtered through 0.2 μm filter.

ex vivo porcine corneas = assay: Ex vivo tensile testing of cross-linked porcine corneas (elastic modulus); parameters: species or system domestic pig (Sus domesticus)
Method: Eyes of the domestic pig (Sus domesticus) are collected from a local abattoir 0-4 hours post-mortem. Eyes are cleaned of excess tissue and fat and washed in PBS containing 200 U penicillin and 0.2 mg/ml streptomycin and 5 μg/ml amphotericin B (Merch Life Science, Dorset, UK). The eyes are stored in a petri dish containing the PBS antibiotic/antimycotic solution, corneas facing up, at 4° C. overnight.
The porcine eyes are removed from 4° C. and allowed to warm to room temperature. One-to-two drops of Minims Proxymetacaine hydrochloride 0.5% w/v (Bosch & Lomb, Surrey, UK) were applied to the cornea for 15 minutes, with additional drops added ever 5 minutes and then 2-3 minutes before treatment. After which a suction ring (E.Janach, Como, Italy) was attached to the cornea (FIG. 1) and 200 μl of BS^3 solution was added inside the ring. Eyes were incubated for 5, 15 or 30 mins at 37° C.; after which the BS^3 solution was aspirated and retained for pH measurement, and eyes were rinsed in PBS then stored, cornea facing down, in a 6-well plate with fresh PBS until tensile measurement.
Suction rings were applied to porcine corneas as in FIG. 1 and 18% ethanol solution was applied for 30 seconds before being adsorbed by a sponge spear. The cornea was then rinsed with PBS. After this the epithelium was removed with a corneal scraper and sponge spear. Once the epithelium was removed 0.1% riboflavin (Vibex Rapid™, Avedro Inc, MA, USA) was applied every 3 mins. Riboflavin was applied for a total of 30 mins for the Dresden protocol and 15 minutes for the Accelerated protocol.
After riboflavin treatment eyes were cross-linked by UVA light using and KXL System (Avedro Inc). UV light was applied at 3 mW/cm^2 for 30 mins for the Dresden protocol and 6 mW/cm^2 for 15 mins for the Accelerated protocol for a total applied energy of 5.4 J/cm^2 for both protocols.
The anterior section of the eye was removed by cutting around the globe 5-10 mm posteriorly from the limbus. The iris and ciliary process were removed from the posterior section of the tissue leaving only sclera and cornea. A strip of tissue was cut using a custom-made replaceable razor blade jig. Tissue thickness and width (determined as the distance between cutting edges) were measured with calipers.
The tissue strip was mounted in the grips of a Univert tensile tester (CellScale, Ontario, Canada) with a 50 N load cell. Tissue was stretched at a rate of 125 μm/s until failure. Data was captured at 1 Hz. Stress-strain curves were plotted and the elastic modulus was determined at a range of strains: 5-10%, 10-15%, 20-25% and 30-35%. Data were trimmed to 3% from the strain at ultimate tensile strain and 6 term polynomial equations we determined from each curve. […] These polynomials represent the stress-stain response of each cornea and were used to create an average stress-strain curve for the samples.
Ex vivo mechanical data were compared by One-way ANOVA and Tukey's post-hoc.

rabbit corneas = details: in vivo
Method: (§1) Male Wistar rats (300 g) and mixed sex New Zealand rabbits (1.5-3 kg), both specific-antigen free, were ordered from Charles River UK and ENVIGO, respectively. They were allowed a minimum of 7 days acclimatisation prior to procedures. Animals were anaesthetised and proxymetacaine hydrochloride 0.5% w/v was applied to the corneas. For the rats, a 2 cm section of silicone tubing was placed on the cornea whereas for the rabbits the suction ring (as above) was placed on the cornea, and 200 μl of the sterile filtered 0.2 M BS^3 solution was instilled for 15 mins. Following this, eyes were rinsed with saline. Animals were provided with antibiotic/steroid drops (Tobradex, Novartis Pharmaceuticals UK Ltd, London, UK) daily and were monitored for any signs for distress or ocular discomfort.
(§2) The animals were euthanised at pre-determined time points (rats at 24 hours and 7 days; rabbits at 3 days post-treatment). Aqueous humour was collected. Rat ocular tissue was collected and fixed in 10% paraformaldehyde for histology. […]
(§3) Corneal thickness and transparency were determined using optical coherence tomography (OCT) (ENVISU R2210, Leica Microsystems, Milton Keynes, UK) before treatment and prior to euthanasia. Corneal transparency was determined by the intensity of the pixels within the cornea minus background intensity from the corneal sections of the OCT images. […]

rat corneas = details: in vivo
Method: as §1, §2, §3

bis(sulfosuccinimidyl)suberate [BS3]
pH by 30 minutes ([1]; 20 mg/ml (0.035 M) BS^3 in PBS (Dulbecco A), formulation of US2014/0271897 A1 [0358]): 5.18 | precipitation ([1]; 0.2 M BS^3 in 0.1 M and 0.2 M carbonate buffers, at 24 hours): Precipitation was observed | initial pH after the addition of 0.2 M BS^3 ([1]; 0.2 M BS^3 in 0.5 M carbonate buffers): > 7 | pH over the 24 hour testing period ([1]; 0.2 M BS^3 in 0.5 M carbonate:bicarbonate buffer, ratio 5:5): > 6 | precipitation ([1]; 0.2 M BS^3 in 0.5 M carbonate:bicarbonate buffer, ratio 5:5, 24 hour testing period): did not have any precipitation | pH over the 24 hour testing period ([1]; 0.2 M BS^3 in 0.5 M carbonate:bicarbonate buffer, ratio 9:1): > 6 | precipitation ([1]; 0.2 M BS^3 in 0.5 M carbonate:bicarbonate buffer, ratio 9:1, 24 hour testing period): did not have any precipitation | Percentage Change in Modulus Compared to Control (ex vivo porcine corneas; 20 mg/ml (0.035 M) BS3 in PBS (US2014/0271897 A1 [0358]), strain range 5-10%): −28% | Percentage Change in Modulus Compared to Control (ex vivo porcine corneas; 20 mg/ml (0.035 M) BS3 in PBS (US2014/0271897 A1 [0358]), strain range 10-15%): −10% | Percentage Change in Modulus Compared to Control (ex vivo porcine corneas; 20 mg/ml (0.035 M) BS3 in PBS (US2014/0271897 A1 [0358]), strain range 20-25%): 3% | Percentage Change in Modulus Compared to Control (ex vivo porcine corneas; 20 mg/ml (0.035 M) BS3 in PBS (US2014/0271897 A1 [0358]), strain range 30-35%): 15% | difference in elastic modulus compared to control (ex vivo porcine corneas; 20 mg/ml (0.035 M) BS^3 in PBS, any of the strain ranges, p>0.05): no significant difference | Percentage Change in Modulus Compared to Control (ex vivo porcine corneas; 0.2M BS3, 5 min treatment, strain range 5-10%): 76% | Percentage Change in Modulus Compared to Control (ex vivo porcine corneas; 0.2M BS3, 5 min treatment, strain range 10-15%): 60% | Percentage Change in Modulus Compared to Control (ex vivo porcine corneas; 0.2M BS3, 5 min treatment, strain range 20-25%): 42% | Percentage Change in Modulus Compared to Control (ex vivo porcine corneas; 0.2M BS3, 5 min treatment, strain range 30-35%): 12% | Percentage Change in Modulus Compared to Control (ex vivo porcine corneas; 0.2M BS3, 15 min treatment, strain range 5-10%): 109% | Percentage Change in Modulus Compared to Control (ex vivo porcine corneas; 0.2M BS3, 15 min treatment, strain range 5-10%, listed as BS^3): 109% | Percentage Change in Modulus Compared to Control (ex vivo porcine corneas; 0.2M BS3, 15 min treatment, strain range 10-15%): 68% | Percentage Change in Modulus Compared to Control (ex vivo porcine corneas; 0.2M BS3, 15 min treatment, strain range 10-15%, listed as BS^3): 68% | Percentage Change in Modulus Compared to Control (ex vivo porcine corneas; 0.2M BS3, 15 min treatment, strain range 20-25%): 43% | Percentage Change in Modulus Compared to Control (ex vivo porcine corneas; 0.2M BS3, 15 min treatment, strain range 30-35%): 18% | Percentage Change in Modulus Compared to Control (ex vivo porcine corneas; 0.2M BS3, 15 min treatment, strain range 30-35%, listed as BS^3): 18% | Percentage Change in Modulus Compared to Control (ex vivo porcine corneas; 0.2M BS3, 30 min treatment, strain range 5-10%): 56% | Percentage Change in Modulus Compared to Control (ex vivo porcine corneas; 0.2M BS3, 30 min treatment, strain range 10-15%): 54% | Percentage Change in Modulus Compared to Control (ex vivo porcine corneas; 0.2M BS3, 30 min treatment, strain range 20-25%): 45% | Percentage Change in Modulus Compared to Control (ex vivo porcine corneas; 0.2M BS3, 30 min treatment, strain range 30-35%): 22% | stiffness (elastic modulus) (ex vivo porcine corneas; 0.2 M BS^3 in 0.5 M carbonate:bicarbonate 9:1, 5 min treatment, strain range 5-10%): 5.43±2.23 MPa | stiffness (elastic modulus) (ex vivo porcine corneas; 0.2 M BS^3 in 0.5 M carbonate:bicarbonate 9:1, 15 min treatment, strain range 5-10%): 6.47±2.23 MPa | stiffness (elastic modulus) (ex vivo porcine corneas; 0.2 M BS^3 in 0.5 M carbonate:bicarbonate 9:1, 30 min treatment, strain range 5-10%): 4.84±2.02 MPa | reduction in corneal thickness in the treated eyes vs contralateral control (rabbit corneas): 100±20 μm | reduction in corneal thickness in the treated eye vs contralateral control (rat corneas): 42±29 μm
